Consider one compound from patent publication US20200071361A1, “ENGINEERED ANTIMICROBIAL AMPHIPHILIC PEPTIDES AND METHODS OF USE” (priority 2017, published 2020).

Common to all, as to experiment: Broth microdilution MIC, clinical isolate panel
A general note: In broth dilution the organism is exposed to a series of concentrations in liquid medium.

In experiment [1] the test system is Acinetobacter spp. isolates (n = 104). In kind it is cell-based. The note with it: Acinetobacter spp. (n = 104). As to the method: (§1) Comparator antibiotics were supplied by Micromyx, and stock solutions were prepared on the first day of testing using solvents recommended by CLSI (1). Stock solutions of all compounds were made at 40× the final testing concentration and stored at −80° C. prior to testing. Information regarding compound source, catalog and lot number, testing concentrations and drug diluent for the comparators and test agent are detailed below in Table 3.
(§2) The test organisms evaluated in this study consisted of clinical isolates from the Micromyx Repository and reference isolates from the American Type Culture Collection (ATCC; Manassas, Va.). The clinical isolates were obtained from USA hospitals. Upon initial receipt at Micromyx, the organisms were sub-cultured onto an appropriate agar medium. Following incubation, colonies were harvested from these plates and cell suspensions prepared and frozen at −80° C. with a cryoprotectant. Prior to testing, the isolates were streaked from frozen vials onto Trypticase Soy Agar with 5% sheep blood (Becton Dickenson [BD]; Sparks, Md.; Lot Nos. 7173618, 7166759, 7208688, 72144895, 7228505 and Remel Lenexa, Kans. Lot No. 212574). Plates were incubated at 35° C. overnight.
(§3) Mueller Hinton II broth (MHB II; BD; Lot Nos. 6258541 and 7143896) was used for MIC testing of aerobic organisms.
(§4) MIC values were determined using a broth microdilution procedure described by CLSI (1, 3). Automated liquid handlers (Multidrop 384, Labsystems, Helsinki, Finland; Biomek 2000 and Biomek FX, Beckman Coulter, Fullerton Calif.) were used to conduct serial dilutions and liquid transfers.
(§5) To prepare the drug mother plates, which would provide the serial drug dilutions for the replicate daughter plates, the wells of columns 2-12 of standard 96-well microdilution plates (Costar 3795) were filled with 150 μl of the designated diluent for each row of drug. The test articles and comparator compounds (300 μl at 40× the highest concentration to be tested) were dispensed into the appropriate wells in column 1. The Biomek 2000 was then used to make 2-fold serial dilutions in the mother plates from column 1 through column 11. The wells of Column 12 contained no drug and served as the organism growth control wells for the assay.
(§6) The daughter plates were loaded with 185 μL per well of MHB II using the Multidrop 384. The daughter plates were completed on the Biomek FX instrument which transferred 5 µL of drug solution from each well of a mother plate to the corresponding well of each daughter plate in a single step. A standardized inoculum of each test organism was prepared per CLSI methods (1). The inoculum for each organism was dispensed into sterile reservoirs divided by length (Beckman Coulter), and the Biomek 2000 was used to inoculate the plates. Daughter plates were placed on the Biomek 2000 work surface in reverse orientation so that inoculation took place from low to high drug concentration.
(§7) Plates were stacked 3-4 high, covered with a lid on the top plate, placed in plastic bags, and incubated at 35° C. for 16 to 20 hrs. Following incubation, the microplates were removed from the incubator and viewed from the bottom using a plate viewer. […] The MIC was read and recorded as the lowest concentration of drug that inhibited visible growth of the organism.
(§8) Clinical breakpoints to determine percent resistance within a given organism group were obtained from CLSI (3), with the exception of colistin for K. pneumoniae, Enterobacter spp., and E. coli, which are only available from EUCAST.

Experiment [2] relates to Escherichia coli isolates (n = 101). In kind it is cell-based. The note with it: Escherichia coli (n = 101). As to the method:
as §1, §2, §3, §4, §5, §6, §7, §8

Experiment [3] deals with Klebsiella pneumoniae isolates (n = 101). It counts as cell-based. The note with it: Klebsiella pneumoniae (n = 101). As to the method: as §1, §2, §3, §4, §5, §6, §7, §8
For experiment [4], the system named is Pseudomonas aeruginosa isolates (n = 109). In kind it is cell-based. As to the method: as §1, §2, §3, §4, §5, §6, §7, §8
For experiment [5], the system named is Enterobacter spp. isolates (n = 102). It counts as cell-based, Enterobacter aerogenes and E. cloacae. The note with it: Enterobacter spp. (n = 102). How it is done: as §1, §2, §3, §4, §5
The daughter plates were loaded with 185 μL per well of MHB II using the Multidrop 384. The daughter plates were completed on the Biomek FX instrument which transferred 5 µL of drug solution from each well of a mother plate to the corresponding well of each daughter plate in a single step. […]
Plates were stacked 3-4 high, covered with a lid on the top plate, placed in plastic bags, and incubated at 35° C. for 16 to 20 hrs. […] The MIC was read and recorded as the lowest concentration of drug that inhibited visible growth of the organism. […]

≈ marks a conversion by molar mass, not a printed value.

Broadly, the MIC50 is the lowest concentration that inhibits either 50% of growth or 50% of the strains tested, depending on the study. Lower therefore signals higher susceptibility. As usually defined, the MIC90 is an inhibitory concentration at the 90% level, which refers to growth in some studies and to a panel of isolates in others. Usually MIC stands for the least concentration at which growth counts as inhibited. Turning to `NC[C@H]1O[C@H](O[C@H]2[C@H](O)[C@@H](O[C@H]3O[C@H](CO)[C@@H](O)[C@H](N)[C@H]3O)[C@H](N)C[C@@H]2N)[C@H](N)C[C@@H]1O` [Tobramycin], the “% R (percent of isolates resistant, clinical breakpoints)” value is on record as 49.0% in experiment [1], “over 60%” in experiment [3], 7.4% in experiment [4] (Pseudomonas aeruginosa (n = 109)) and 3.9% in experiment [5]. Further, the MIC50 was determined as 8 µg/mL (≈ 17.1 µM) in experiment [1] and 16 µg/mL (≈ 34.2 µM) in experiment [3]. The MIC90 in experiment [1] was over 64 µg/mL; in experiment [2] it was 32 µg/mL (≈ 68.4 µM); in experiment [3] it was 64 µg/mL (≈ 137 µM); in experiment [4] (Pseudomonas aeruginosa), 4 µg/mL (≈ 8.56 µM). The MIC in experiment [1] (read-out: Mode (MIC)) is over 64 µg/mL; in experiment [3] (read-out: Mode (MIC)), 16 µg/mL (≈ 34.2 µM).
